The values that follow are results of earlier work, collected in patent publication US7423028B2, “Injectable pharmaceutical compositions comprising sodium diclofenac and β-cyclodextrin” (Ibsa Institut Biochemique S.A., priority 2004, dated 2008).

As to `O=C([O-])Cc1ccccc1Nc1c(Cl)cccc1Cl.[Na+]` [sodium diclofenac, 2-[(2,6-dichlorophenyl)amino]benzeneacetic acid monosodium salt], the solubility in water result is reported as “sparingly soluble in water”.
